Test results reported in ChEMBL document CHEMBL1201862, “PubChem BioAssay data set” (2004).
Activity calls are given as the source filed them.

How the values were obtained:
[1] = target: Nuclear receptor subfamily 5 group A member 2 (Homo sapiens, UniProt O00482); format: functional, cell-based;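 also: HEK293T cells transfected with LRH-1 and a StAR promoter luciferase reporter; potency for inhibitors that lower LRH-1 driven reporter light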
Steroidogenic factor 1 = Steroidogenic factor 1 (Homo sapiens, UniProt Q13285); assay: Counterscreen for inverse agonists of the liver receptor homolog-1 (LRH-1; NR5A2): Luminescence-based cell-based high throughput dose response assay to identify inverse agonists of the Steroidogenic Factor 1 Nuclear Receptor (SF1; NR5A1).; format: functional
Chain of Steroidogenic factor 1 (Q13285 whole entry): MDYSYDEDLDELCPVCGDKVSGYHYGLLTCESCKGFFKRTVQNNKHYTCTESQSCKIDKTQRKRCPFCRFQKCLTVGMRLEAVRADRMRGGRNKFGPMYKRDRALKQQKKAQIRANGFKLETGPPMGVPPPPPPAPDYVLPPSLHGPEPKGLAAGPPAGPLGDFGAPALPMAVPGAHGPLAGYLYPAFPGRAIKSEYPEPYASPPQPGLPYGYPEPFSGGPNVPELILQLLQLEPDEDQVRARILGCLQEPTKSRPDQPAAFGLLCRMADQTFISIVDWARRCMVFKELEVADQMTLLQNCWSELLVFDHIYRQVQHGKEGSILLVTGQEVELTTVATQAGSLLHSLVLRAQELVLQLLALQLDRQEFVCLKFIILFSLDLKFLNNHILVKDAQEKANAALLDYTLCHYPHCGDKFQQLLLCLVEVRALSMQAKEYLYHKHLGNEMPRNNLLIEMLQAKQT

[2] = nonselective StAR promoter luciferase inhibitors – cell-based, luminescence, luciferase reporter, counter-screen for LRH-1 inverse agonist project, dose response (AID 651969); format: functional
[3] = target: T1, Short transient receptor potential channel 4 (Mus musculus, UniProt Q9QUQ5); assay: block of DAMGO-driven TRPC4 calcium entry – cell-based, HEK293 TRPC4/mu-opioid, Fluo-4 calcium, dose response (AID 434942); format: functional;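 also: potency of inhibitors blocking the TRPC4 calcium response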
T1 sequence (Q9QUQ5 whole entry): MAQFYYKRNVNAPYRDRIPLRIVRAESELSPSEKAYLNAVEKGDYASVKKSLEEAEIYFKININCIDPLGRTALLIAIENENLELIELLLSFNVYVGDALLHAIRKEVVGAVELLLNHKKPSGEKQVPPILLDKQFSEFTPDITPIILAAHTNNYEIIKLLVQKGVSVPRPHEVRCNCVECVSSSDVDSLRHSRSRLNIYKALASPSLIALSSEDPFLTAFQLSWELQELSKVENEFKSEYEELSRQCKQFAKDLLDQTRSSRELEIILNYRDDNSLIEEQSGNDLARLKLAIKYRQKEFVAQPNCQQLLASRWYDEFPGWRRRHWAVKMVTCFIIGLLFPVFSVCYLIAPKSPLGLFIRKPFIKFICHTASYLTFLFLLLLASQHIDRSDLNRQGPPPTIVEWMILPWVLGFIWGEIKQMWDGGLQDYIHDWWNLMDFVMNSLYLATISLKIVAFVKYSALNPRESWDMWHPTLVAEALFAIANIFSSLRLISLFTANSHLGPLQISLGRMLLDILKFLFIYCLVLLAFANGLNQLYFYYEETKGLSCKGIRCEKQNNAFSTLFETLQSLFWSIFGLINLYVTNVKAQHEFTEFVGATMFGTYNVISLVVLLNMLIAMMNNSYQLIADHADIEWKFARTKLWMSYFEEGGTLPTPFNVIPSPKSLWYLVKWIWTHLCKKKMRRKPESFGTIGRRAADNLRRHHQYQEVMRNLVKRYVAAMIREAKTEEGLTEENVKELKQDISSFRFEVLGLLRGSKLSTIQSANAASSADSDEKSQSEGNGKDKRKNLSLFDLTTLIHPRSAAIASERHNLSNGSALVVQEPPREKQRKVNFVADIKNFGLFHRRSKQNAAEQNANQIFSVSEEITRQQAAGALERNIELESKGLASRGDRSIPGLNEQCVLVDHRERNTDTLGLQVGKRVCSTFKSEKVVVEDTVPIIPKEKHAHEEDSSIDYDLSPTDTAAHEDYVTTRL

[4] = target: T2, Corticotropin-releasing factor receptor 2/Corticotropin-releasing factor-binding protein (Homo sapiens, UniProt P24387+Q13324); assay: Dose Response confirmation of uHTS hits for small molecule antagonists of the CRF-binding protein and CRF-R2 receptor complex.; format: functional; settings: read-out: IC50_Mean
T2 sequence (Q13324 whole entry): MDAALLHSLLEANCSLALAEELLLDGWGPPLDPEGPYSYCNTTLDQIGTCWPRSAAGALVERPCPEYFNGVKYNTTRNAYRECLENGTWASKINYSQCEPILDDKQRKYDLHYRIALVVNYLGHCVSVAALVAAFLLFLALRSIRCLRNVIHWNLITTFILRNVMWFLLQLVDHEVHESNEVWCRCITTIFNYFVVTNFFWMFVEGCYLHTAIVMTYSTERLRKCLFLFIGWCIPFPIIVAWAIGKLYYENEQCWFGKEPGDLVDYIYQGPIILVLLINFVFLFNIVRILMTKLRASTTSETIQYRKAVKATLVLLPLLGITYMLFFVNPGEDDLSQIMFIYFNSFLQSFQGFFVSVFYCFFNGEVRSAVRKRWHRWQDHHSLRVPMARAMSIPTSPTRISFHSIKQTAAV
T2 sequence (P24387 whole entry): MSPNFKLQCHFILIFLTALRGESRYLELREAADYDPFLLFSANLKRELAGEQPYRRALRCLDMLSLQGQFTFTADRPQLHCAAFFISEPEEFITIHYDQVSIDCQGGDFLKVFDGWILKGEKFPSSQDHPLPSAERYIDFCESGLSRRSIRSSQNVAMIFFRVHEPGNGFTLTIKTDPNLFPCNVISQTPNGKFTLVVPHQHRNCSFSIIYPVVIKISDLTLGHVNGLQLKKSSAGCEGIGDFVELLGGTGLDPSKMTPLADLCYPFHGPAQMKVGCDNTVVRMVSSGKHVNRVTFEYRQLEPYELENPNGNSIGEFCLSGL

[5] = target: T2, Corticotropin-releasing factor receptor 2/Corticotropin-releasing factor-binding protein; assay: activators of CRF receptor 2 with binding protein – uHTS hits, confirmation (AID 602473); format: functional; settings: read-out: EC50_Mean
[6] = blockers of CRF-binding protein–CRF-R2 complex – cell-based, uHTS hits, 384-well, dose response (AID 651639); format: functional, Homo sapiens; settings: read-out: IC50_Mean
[7] = target: T3, Probable nicotinate-nucleotide adenylyltransferase (Staphylococcus aureus (strain N315), UniProt P65502); format: functional, Staphylococcus aureus subsp. aureus N315;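 as to IC50 Mean: confirmatory dose-response retesting of NadD inhibitor hits first found in an ultra-high-throughput screen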
T3 sequence (P65502 whole entry): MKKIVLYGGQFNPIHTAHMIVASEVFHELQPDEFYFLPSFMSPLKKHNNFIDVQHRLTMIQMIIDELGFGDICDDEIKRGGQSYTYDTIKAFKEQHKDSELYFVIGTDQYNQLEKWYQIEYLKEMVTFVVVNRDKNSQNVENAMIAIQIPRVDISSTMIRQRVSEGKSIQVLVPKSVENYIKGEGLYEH

[8] = target: T3, Probable nicotinate-nucleotide adenylyltransferase; format: functional, Staphylococcus aureus subsp. aureus N315; settings: read-out: IC50_Mean
[9] = target: T4, Low molecular weight phosphotyrosine protein phosphatase (Homo sapiens, UniProt P24666); format: functional; settings: read-out: IC50_Mean
T4 sequence (P24666 whole entry): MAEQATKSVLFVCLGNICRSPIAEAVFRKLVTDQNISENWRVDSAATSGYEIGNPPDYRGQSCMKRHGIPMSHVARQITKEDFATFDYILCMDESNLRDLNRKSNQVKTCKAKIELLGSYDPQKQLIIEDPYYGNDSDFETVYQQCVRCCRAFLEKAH

[10] = target: T4, Low molecular weight phosphotyrosine protein phosphatase; format: functional; settings: read-out: IC50_Mean; remark: listed apart in the source
[11] = target: Photoreceptor-specific nuclear receptor (Homo sapiens, UniProt Q9Y5X4); format: functional, cell-based;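 also: CHO-S cells with Gal4-NCOR and VP16-NR2E3 two-hybrid luciferase reporter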
Chain of Photoreceptor-specific nuclear receptor (Q9Y5X4 whole entry, the tested form may be a part): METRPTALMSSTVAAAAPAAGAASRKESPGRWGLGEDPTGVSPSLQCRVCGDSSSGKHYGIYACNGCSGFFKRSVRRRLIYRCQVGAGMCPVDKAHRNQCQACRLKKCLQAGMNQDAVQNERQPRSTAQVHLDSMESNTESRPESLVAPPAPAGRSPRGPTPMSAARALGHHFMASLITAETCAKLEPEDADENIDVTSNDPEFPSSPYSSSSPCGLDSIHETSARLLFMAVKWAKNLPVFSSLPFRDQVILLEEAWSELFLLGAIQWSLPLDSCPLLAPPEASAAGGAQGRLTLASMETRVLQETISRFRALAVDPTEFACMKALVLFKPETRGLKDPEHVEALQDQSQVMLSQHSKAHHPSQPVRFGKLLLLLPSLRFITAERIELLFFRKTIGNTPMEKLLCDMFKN

[12] = target: Heat shock protein HSP 90-alpha (Homo sapiens, UniProt P07900); format: functional, organism-based
[13] = target: T5, ATP-dependent translocase ABCB1 (Homo sapiens, UniProt P08183); assay: inhibition of BCRP-mediated JC-1 efflux – Ig-MXP3 cells, flow cytometry, set 2, dose response (AID 504566); format: functional; settings: read-out: EC50_MICROM_;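 also: flow cytometry median green fluorescence of retained JC-1 dye; potency of efflux pump inhibition measured as rising substrate retention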
T5 sequence (P08183 whole entry): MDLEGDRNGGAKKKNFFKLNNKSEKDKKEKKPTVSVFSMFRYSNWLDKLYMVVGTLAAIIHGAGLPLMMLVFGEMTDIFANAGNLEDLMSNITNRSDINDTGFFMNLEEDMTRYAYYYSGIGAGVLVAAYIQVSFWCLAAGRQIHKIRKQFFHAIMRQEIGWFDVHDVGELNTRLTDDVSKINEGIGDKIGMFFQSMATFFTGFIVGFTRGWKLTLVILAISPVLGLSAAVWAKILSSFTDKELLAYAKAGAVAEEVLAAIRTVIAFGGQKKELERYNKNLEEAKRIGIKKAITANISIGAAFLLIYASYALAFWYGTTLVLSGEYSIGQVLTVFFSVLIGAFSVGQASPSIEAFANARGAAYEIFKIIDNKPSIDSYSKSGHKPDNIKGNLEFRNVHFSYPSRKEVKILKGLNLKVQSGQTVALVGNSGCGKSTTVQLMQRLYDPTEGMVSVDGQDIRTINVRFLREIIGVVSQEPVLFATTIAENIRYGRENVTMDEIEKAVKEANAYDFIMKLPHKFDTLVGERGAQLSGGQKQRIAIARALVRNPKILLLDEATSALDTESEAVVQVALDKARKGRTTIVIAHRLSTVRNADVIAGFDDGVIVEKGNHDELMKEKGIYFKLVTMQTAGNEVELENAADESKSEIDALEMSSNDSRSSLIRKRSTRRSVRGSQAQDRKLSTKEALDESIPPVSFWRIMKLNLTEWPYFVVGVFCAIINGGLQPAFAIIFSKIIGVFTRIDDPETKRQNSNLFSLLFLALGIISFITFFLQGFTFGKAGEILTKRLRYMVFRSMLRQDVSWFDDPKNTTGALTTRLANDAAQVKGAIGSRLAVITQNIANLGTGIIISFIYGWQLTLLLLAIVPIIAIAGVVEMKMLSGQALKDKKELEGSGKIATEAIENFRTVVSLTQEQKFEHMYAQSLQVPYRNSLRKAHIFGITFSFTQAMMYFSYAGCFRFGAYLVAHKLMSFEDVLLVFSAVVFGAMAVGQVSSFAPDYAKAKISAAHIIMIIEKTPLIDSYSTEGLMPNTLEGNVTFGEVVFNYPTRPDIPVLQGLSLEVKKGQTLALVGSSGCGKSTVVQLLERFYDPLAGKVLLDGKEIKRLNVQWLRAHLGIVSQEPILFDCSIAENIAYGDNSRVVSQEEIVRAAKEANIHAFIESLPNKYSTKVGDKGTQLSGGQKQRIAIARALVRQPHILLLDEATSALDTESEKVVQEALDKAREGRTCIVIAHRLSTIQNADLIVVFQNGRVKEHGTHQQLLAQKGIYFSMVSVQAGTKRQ

[14] = target: T5, ATP-dependent translocase ABCB1; assay: P-gp JC-1 efflux blockade concentration-response – Jurkat-DNR cells, flow cytometry, set 2, dose response (AID 504569); format: functional; settings: read-out: EC50_MICROM_;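 also: potency of pump inhibitors that raise cellular JC-1 green fluorescence up to the nicardipine level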
[15] = viability of uninfected HEp-2 cells – cell-based, HTS, cytotoxicity control for RSV inhibitor project, dose response (AID 2410); format: functional; settings: human respiratory syncytial virus
[16] = target: T6, Methionyl-tRNA synthetase, putative (Trypanosoma brucei brucei, UniProt Q38C91); format: functional, Trypanosoma brucei brucei strain 927/4 GUTat10.1
T6 sequence (Q38C91 whole entry): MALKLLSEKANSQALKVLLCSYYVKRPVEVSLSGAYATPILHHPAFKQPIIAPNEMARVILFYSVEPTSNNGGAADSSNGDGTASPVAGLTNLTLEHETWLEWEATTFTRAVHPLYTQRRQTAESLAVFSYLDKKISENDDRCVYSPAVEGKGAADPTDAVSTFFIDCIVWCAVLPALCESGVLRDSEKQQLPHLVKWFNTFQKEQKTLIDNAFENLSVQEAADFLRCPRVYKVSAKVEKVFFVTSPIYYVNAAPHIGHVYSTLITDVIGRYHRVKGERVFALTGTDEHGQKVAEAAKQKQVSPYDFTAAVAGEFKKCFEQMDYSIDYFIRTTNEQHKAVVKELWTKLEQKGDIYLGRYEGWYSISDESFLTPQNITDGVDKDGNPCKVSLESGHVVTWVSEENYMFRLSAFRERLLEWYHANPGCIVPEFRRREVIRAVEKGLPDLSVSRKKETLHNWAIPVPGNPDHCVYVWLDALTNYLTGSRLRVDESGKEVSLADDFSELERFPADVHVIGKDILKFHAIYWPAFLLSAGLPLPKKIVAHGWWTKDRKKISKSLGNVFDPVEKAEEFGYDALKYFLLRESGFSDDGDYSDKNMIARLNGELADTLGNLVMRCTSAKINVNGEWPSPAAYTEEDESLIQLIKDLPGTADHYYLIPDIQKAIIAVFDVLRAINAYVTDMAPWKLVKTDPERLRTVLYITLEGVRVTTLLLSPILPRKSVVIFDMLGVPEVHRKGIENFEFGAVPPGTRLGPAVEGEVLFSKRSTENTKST

[17] = Counterscreen for inhibitors of Trypanosoma brucei methionyl tRNA synthetase (MetRS): Luminescence-based cell-based high throughput dose response assay to identify compounds that are cytotoxic to Jurkat human T lymphocyte cells.; format: functional
[18] = target: T6, Methionyl-tRNA synthetase, putative; format: functional, Trypanosoma brucei brucei strain 927/4 GUTat10.1; remark: listed apart in the source
[19] = target: T7, Rac GTPase-activating protein 1 (Homo sapiens, UniProt Q9H0H5); assay: blockers of MgcRacGAP-driven Rac1 GTP hydrolysis – biochemical, ADP Hunter fluorescence, primary and confirmatory, confirmation (AID 624330); format: functional
T7 sequence (Q9H0H5 whole entry): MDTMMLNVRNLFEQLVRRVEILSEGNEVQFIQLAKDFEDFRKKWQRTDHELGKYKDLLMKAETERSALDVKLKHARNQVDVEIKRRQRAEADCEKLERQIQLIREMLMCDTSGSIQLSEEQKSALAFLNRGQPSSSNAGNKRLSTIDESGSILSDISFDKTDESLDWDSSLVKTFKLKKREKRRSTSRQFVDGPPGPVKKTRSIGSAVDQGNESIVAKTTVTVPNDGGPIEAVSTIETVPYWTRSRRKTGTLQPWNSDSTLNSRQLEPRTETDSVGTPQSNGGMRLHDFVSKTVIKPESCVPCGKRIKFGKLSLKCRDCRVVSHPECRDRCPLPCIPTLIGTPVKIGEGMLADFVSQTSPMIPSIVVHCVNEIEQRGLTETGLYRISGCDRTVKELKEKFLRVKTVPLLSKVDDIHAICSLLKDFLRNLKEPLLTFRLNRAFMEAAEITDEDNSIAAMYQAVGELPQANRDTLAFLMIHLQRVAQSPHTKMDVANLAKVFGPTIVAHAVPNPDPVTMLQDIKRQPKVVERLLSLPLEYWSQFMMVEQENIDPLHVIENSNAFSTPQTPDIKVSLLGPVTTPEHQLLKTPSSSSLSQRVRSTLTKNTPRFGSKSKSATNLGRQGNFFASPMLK

Chain of Nuclear receptor subfamily 5 group A member 2 (O00482 whole entry): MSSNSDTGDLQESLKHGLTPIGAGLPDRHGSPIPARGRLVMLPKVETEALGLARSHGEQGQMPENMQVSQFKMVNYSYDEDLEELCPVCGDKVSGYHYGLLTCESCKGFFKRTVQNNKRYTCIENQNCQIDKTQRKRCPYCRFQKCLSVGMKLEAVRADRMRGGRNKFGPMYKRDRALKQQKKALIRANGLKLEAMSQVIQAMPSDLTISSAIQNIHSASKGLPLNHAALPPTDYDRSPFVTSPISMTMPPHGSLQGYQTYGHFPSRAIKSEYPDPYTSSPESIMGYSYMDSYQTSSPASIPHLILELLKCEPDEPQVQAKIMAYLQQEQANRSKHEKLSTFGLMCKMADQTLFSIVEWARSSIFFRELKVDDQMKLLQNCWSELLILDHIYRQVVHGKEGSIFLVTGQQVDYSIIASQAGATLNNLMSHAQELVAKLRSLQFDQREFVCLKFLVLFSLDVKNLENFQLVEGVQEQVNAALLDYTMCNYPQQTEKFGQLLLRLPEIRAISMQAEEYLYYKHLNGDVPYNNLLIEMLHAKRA

SMILES: O=C(CSc1nncc(O)n1)Nc1cccc([N+](=O)[O-])c1
- IC50 [1]: 3.98 µM (active)
- IC50 (Steroidogenic factor 1): 3.98 µM (active)
- IC50 [2]: 13.7 µM (inactive)

SMILES: COc1ccc(/C=C2\SC(=S)N(C(Cc3ccccc3)C(=O)O)C2=O)cc1 (stereo not drawn)
- EC50 [3]: 4.73 µM (active)
- IC50 [4]: 0.545 µM (active)
- EC50 [5]: 34.8 µM (active)
- IC50 [6]: > 20 µM (inactive)

SMILES: CC(=O)Nc1ncc(Cc2cc(Cl)ccc2Cl)s1
- IC50 [1]: 1.33 µM (active)
- IC50 (Steroidogenic factor 1): 2.14 µM (active)
- IC50 [2]: 35.9 µM (inactive)

SMILES: Cc1ccc(-n2nc3c(c2NC(=O)/C=C\c2ccc4c(c2)OCO4)CSC3)cc1
- IC50 [7]: 6.06 µM (active)
- IC50 [8]: 20.4 µM (active)

SMILES: CCC(C)Nc1nc(-c2ccc3c(c2)NC(=O)CO3)cs1 (stereo not drawn)
- IC50 [9]: 10.5 µM (active)
- IC50 [10]: 63.3 µM (inactive)

SMILES: Cc1ccc(NC(=O)CNC(=O)c2cccc(C)c2)nc1
- IC50 [11]: 3.75 µM (active)

SMILES: O=S(=O)(NC1CCCC1)c1ccc(S(=O)(=O)N2CCc3ccccc32)cc1
- IC50 [11]: 2.47 µM (active)

SMILES: Cc1cc(N2CCN(C(=O)c3ccco3)CC2)n2nc(C)c(-c3ccccc3)c2n1
- AC50 [12]: 7.93 µM (active)
- EC50 [13]: 7.22 µM (active)
- EC50 [14]: 3.25 µM (inactive)

SMILES: Cc1cccc(-c2nc(NCCCN3CCOCC3)c3ccccc3n2)c1
- IC50 [9]: 22.6 µM (inactive)
- IC50 [10]: 7.12 µM (active)

SMILES: O=C(NCc1nc2ccccc2[nH]1)C1=C[C@H](c2csc3ccccc23)C[C@H](OCc2ccc(CO)cc2)O1
- CC50 [15]: 41.1 µM (active)
- IC50 [16]: 3.54 µM (active)
- IC50 [17]: 47.7 µM (inactive)
- IC50 [18]: 1.58 µM (active)

SMILES: COc1ccc(C)cc1NCc1cccc(OC)c1OC
- IC50 [4]: 39.6 µM (active)
- EC50 [5]: > 53 µM (inactive)
- IC50 [6]: > 20 µM (inactive)
- IC50 [19]: 41.7 µM (active)

SMILES: COC(=O)[C@H](CC(C)C)N1Cc2cc(OC)cc(OC)c2-c2ccccc2S1(=O)=O
- IC50 [7]: 23.5 µM (active)
- IC50 [8]: 55.6 µM (active)

SMILES: COc1ccc(C(=O)N2CCN(c3cc(-c4ccccc4)nc4cc(-c5cccc(Cl)c5)nn34)CC2)cc1
- EC50 [13]: 2.04 µM (active)
- EC50 [14]: 3.04 µM (active)
